Assay [1] addresses T1, VtrA–VtrC periplasmic domain complex (heterodimer) (Vibrio parahaemolyticus, UniProt Q87GI3+Q87GI4).
T1 construct: gene VPA1333; periplasmic domains: VtrC residues 31-161 with N-terminal His6 tag, coexpressed with VtrA residues 161-253 (pACYC-Duet-VtrC/VtrA, E. coli BL21(DE3)); heterodimer, bile acid lies in the beta-barrel, contacts printed are VtrC residues
Briefly: isothermal titration calorimetry. It is filed as binding. In general terms: Isothermal titration calorimetry measures the heat released or taken up as one component is titrated into another.

In assay [2] the target is T1, VtrA–VtrC periplasmic domain complex (heterodimer). As to the kind of experiment: isothermal titration calorimetry; crystal structure of the complex also solved ([…] Å). It is filed as binding.
For assay [3], the target named is T2, VtrA–VtrC periplasmic domain complex (heterodimer) (Vibrio parahaemolyticus, UniProt Q87GI3+Q87GI4, Q87GI3:H50A).
T2 construct: gene VPA1333
Briefly: biochemical. The source says: (§1) isothermal titration calorimetry on VtrA–VtrC periplasmic domain complex (heterodimer)

In assay [4] the target is T3, VtrA–VtrC periplasmic domain complex (heterodimer) (Vibrio parahaemolyticus, UniProt Q87GI3+Q87GI4, Q87GI3:S123A).
T3 construct: gene VPA1333
As to the kind of experiment: biochemical.
Text: as §1

Assay [5] concerns the target T4, VtrA–VtrC periplasmic domain complex (heterodimer) (Vibrio parahaemolyticus, UniProt Q87GI3+Q87GI4, Q87GI3:Y151A).
T4 construct: gene VPA1333
As to the kind of experiment: biochemical.
Text: as §1

Assay [6] has as its target T5, VtrA–VtrC periplasmic domain complex (heterodimer) (Vibrio parahaemolyticus, UniProt Q87GI3+Q87GI4, Q87GI3:Y151F).
T5 construct: gene VPA1333
Briefly: biochemical.
Text: as §1

Assay [7] deals with T6, VtrA–VtrC periplasmic domain complex (heterodimer) (Vibrio parahaemolyticus, UniProt Q87GI3+Q87GI4, Q87GI3:Y81A).
T6 construct: gene VPA1333
As to the kind of experiment: biochemical.
Text: as §1

Take `C[C@H](CCC(=O)O)[C@H]1CC[C@H]2[C@@H]3[C@H](O)C[C@@H]4C[C@H](O)CC[C@]4(C)[C@H]3C[C@H](O)[C@]12C` [CA, cholate]: the Kd – broadly, a measure of binding affinity in units of concentration – in assay [1] came out at 377 nM.
The same measure, in the same setting: then `C[C@H](CCC(=O)O)[C@H]1CC[C@H]2[C@@H]3CC[C@@H]4C[C@H](O)CC[C@]4(C)[C@H]3C[C@H](O)[C@]12C` [DC, deoxycholate], with 232 nM.
As to `C[C@H](CCC(=O)O)[C@H]1CC[C@H]2[C@@H]3[C@H](O)C[C@@H]4C[C@H](O)CC[C@]4(C)[C@H]3CC[C@]12C` [CDC, chenodeoxycholate], the Kd in assay [2] was determined as 310 nM; in assay [3], 904 nM; in assay [4] it was 202 nM; in assay [5], 2280 nM; in assay [6], 1170 nM; in assay [7], 731 nM.
As for `C[C@H](CCC(=O)NCCS(=O)(=O)O)[C@H]1CC[C@H]2[C@@H]3CC[C@@H]4C[C@H](O)CC[C@]4(C)[C@H]3C[C@H](O)[C@]12C` [TDC, taurodeoxycholate], the Kd in assay [1] came to 129 nM; in assay [3] it was 301 nM; in assay [4] it was 91.2 nM; in assay [5] it was 2500 nM; in assay [6], 873 nM; in assay [7] it was 1190 nM.
`C[C@H](CCC(=O)NCC(=O)O)[C@H]1CC[C@H]2[C@@H]3[C@H](O)C[C@@H]4C[C@H](O)CC[C@]4(C)[C@H]3CC[C@]12C` [GCDC, glycochenodeoxycholate] came in with a Kd in assay [1] of 211 nM.
